{
  "source": "patent US20260250337A1",
  "about": "“HYBRID ANTIMICROBIAL PEPTIDES” (UNIVERSIDADE FEDERAL DO ABC, priority 2023, published 2026)",
  "key": {"A. baumannii ATCC19606": {"system": "A. baumannii ATCC19606", "assay": "Skin abscess infection mouse model", "type": "in vivo, mice", "conditions": "for anti-infective activity four days after the treatment, reduction of load of A. baumannii cells / anti-infective activity two days post-treatment: skin infection, peptides onto the abscess at their MIC; for anti-infective activity versus parent peptides: skin scarification mouse model", "protocol": "Skin abscess infection mouse model. The anti-infective activity of the peptides VmCT1, temporin A, VT, and TV against A. baumannii ATCC19606 was evaluated as described by Torres et al.^82. Bacteria were grown in tryptic soy broth medium to an optical density of 0.5 at 600 nm. Cells were washed twice with sterile phosphate buffered saline (pH 7.4, 13,000 rpm for 1 min) and resuspended to a final concentration of 1×10^7 CFU/20 μL. To generate the skin infection, female CD-1 mice (6 weeks-old) were first anesthetized with isoflurane and their backs were shaved. A superficial linear abrasion was made with a needle on the shaved area to injure only the stratum corneum and the upper layer of the epidermis. An aliquot of 20 μL suspension containing 1×10^7 CFU of A. baumannii was then inoculated over the wound area with a pipette tip. The next day, the infected area was inoculated with the peptides (VmCT1, temporin A, VT, and TV), which were administered onto the abscess at their MIC. The animals were euthanized, and the scarified skin area removed 2- and 4-days post-infection. The excised area was homogenized using a bead beater for 20 min (25 Hz) and serially diluted for CFU quantification. Two independent experiments were carried out with 3 mice per group in each condition."}, "P. aeruginosa": {"system": "P. aeruginosa", "assay": "MIC against P. aeruginosa", "type": "cell-based", "conditions": "strain not given", "protocol": "(§1) Method. The minimal inhibitory concentration (MIC) against the ESKAPE pathogens was determined using the broth microdilution method^81, 82 in Luria-Bertani (LB) medium. The MIC value was defined as the lowest concentration of peptide at which no microbial growth was observed. A. baumannii ATCC19606, E. coli ATCC11775, E. coli AIC221, E. coli AIC222, K. pneumoniae ATCC13883, S. aureus ATCC12600 P. aeruginosa PAO1, and P. aeruginosa PA14 were incubated on agar plates, and after 24 h, three isolated colonies were inoculated to 5 mL of Luria-Bertani (LB) broth and maintained at 37° C. overnight with shaking. Peptides were then added to 96-well polystyrene microtiter plates at concentrations ranging from 0 to 128 μmol L^−1, and 5×10^5 CFU mL^−1 of each bacterium was inoculated in each well. The plates were incubated at 37° C. for 24 h. Bacterial growth was measured using a microplate reader at 610 nm. Three independent replicates were performed."}, "bacterial strains": {"system": "bacterial strains", "assay": "Antimicrobial activity over the panel of strains", "type": "cell-based", "conditions": "range over strains tested", "protocol": "Initially, the antimicrobial activity was determined by liquid growth inhibition assays, as previously described by Pedron et al.^62. Briefly, Peptone Broth and Potato Dextrose Broth (Invitrogen) were used for antibacterial and antifungal assays, respectively. Two-fold serial dilutions of peptides (0.09-50 μmol L^−1) and microorganisms (Serratia marcescens ATCC 4112, Enterobacter cloacae β-12, Micrococcus luteus A270, Bacillus megaterium ATCC 10778, Bacillus subtilis ATCC 6633, Candida albicans MDM8, and Candida tropicalis IOC 4560) were incubated at 37° C. for 18 h (for bacteria) or 24 h (for fungi), and microbial growth was assessed by absorbance measurements at 595 nm. Experiments were performed in three biological repeats.\nas §1"}},
  "note": "No end group written: not given here.",
  "data": [
    {"substance": "FLGAIGNVLKSIL-NH2 [TV, Phe-Leu-Gly-Ala-Ile-Gly-Asn-Val-Leu-Lys-Ser-Ile-Leu]", "values": [
      {"measurement": "anti-infective activity four days after the treatment, reduction of load of A. baumannii cells", "setting": "A. baumannii ATCC19606", "value": "two orders of magnitude"},
      {"measurement": "anti-infective activity two days post-treatment", "setting": "A. baumannii ATCC19606", "value": "increased anti-infective activity when compared to the parent peptides"},
      {"measurement": "anti-infective activity versus parent peptides", "setting": "A. baumannii ATCC19606", "value": "more potent than that of either parent peptides"}
    ]},
    {"substance": "FLPLLWRVASGVF-NH2 [VT, Phe-Leu-Pro-Leu-Leu-Trp-Arg-Val-Ala-Ser-Gly-Val-Phe]", "values": [
      {"measurement": "anti-infective activity four days after the treatment, reduction of load of A. baumannii cells", "setting": "A. baumannii ATCC19606", "value": "the same effect as the two parent peptides"},
      {"measurement": "anti-infective activity two days post-treatment", "setting": "A. baumannii ATCC19606", "value": "increased anti-infective activity when compared to the parent peptides"},
      {"measurement": "anti-infective activity versus parent peptides", "setting": "A. baumannii ATCC19606", "value": "more potent than that of either parent peptides"}
    ]},
    {"substance": "ILGAILNVLKSLG-NH2 [PV, Ile-Leu-Gly-Ala-Ile-Leu-Asn-Val-Leu-Lys-Ser-Leu-Gly]", "values": [
      {"measurement": "MIC against P. aeruginosa", "setting": "P. aeruginosa", "value": 128, "unit": "µM"},
      {"measurement": "MIC range of the peptide over the strains", "setting": "bacterial strains", "value": "3.1 to 64", "unit": "µM"}
    ]}
  ]
}
